Assay results reported in patent US10717716B2, “1,3,4-oxadiazole derivative compounds as histone deacetylase 6 inhibitor, and the pharmaceutical composition comprising the same” (Chong Kun Dang Pharmaceutical Corp., priority 2015, dated 2020).

Target: T1, human recombinant HDAC6 (Homo sapiens, UniProt Q9UBN7)
T1 construct: purchased Calbiochem 382180
T1 sequence (Q9UBN7 1-1215): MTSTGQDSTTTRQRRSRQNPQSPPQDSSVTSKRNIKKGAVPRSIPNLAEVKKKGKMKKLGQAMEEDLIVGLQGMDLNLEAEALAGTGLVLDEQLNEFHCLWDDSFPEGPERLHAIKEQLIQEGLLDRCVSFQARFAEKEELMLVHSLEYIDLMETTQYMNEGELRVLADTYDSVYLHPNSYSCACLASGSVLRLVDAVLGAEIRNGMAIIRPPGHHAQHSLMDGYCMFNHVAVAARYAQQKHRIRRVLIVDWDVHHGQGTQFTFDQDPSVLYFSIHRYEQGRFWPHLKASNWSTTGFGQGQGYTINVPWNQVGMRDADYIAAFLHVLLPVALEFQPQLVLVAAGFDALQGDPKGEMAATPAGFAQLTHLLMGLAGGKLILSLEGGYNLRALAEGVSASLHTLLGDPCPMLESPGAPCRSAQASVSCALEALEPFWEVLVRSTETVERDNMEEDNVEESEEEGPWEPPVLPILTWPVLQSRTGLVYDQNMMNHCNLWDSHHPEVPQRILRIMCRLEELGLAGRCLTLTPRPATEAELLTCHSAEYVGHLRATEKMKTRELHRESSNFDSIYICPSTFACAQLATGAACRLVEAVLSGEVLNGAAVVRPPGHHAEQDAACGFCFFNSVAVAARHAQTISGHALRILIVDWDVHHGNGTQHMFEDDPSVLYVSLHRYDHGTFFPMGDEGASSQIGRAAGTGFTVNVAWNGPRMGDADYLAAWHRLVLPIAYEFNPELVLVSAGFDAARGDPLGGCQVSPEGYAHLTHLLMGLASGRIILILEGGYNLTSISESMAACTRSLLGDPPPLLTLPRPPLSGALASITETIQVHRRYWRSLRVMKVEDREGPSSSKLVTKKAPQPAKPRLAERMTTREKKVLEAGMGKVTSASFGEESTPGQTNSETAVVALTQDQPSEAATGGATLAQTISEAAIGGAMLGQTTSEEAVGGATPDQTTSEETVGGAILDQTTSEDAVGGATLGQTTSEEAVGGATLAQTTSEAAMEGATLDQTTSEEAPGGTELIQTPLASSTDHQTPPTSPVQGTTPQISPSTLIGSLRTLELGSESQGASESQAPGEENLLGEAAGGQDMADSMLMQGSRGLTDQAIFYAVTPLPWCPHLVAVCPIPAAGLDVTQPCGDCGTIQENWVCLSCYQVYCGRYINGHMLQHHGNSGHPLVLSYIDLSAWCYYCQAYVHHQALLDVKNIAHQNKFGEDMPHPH
Assay: HDAC6 enzyme activity inhibition assay (HDAC Fluorimetric Drug Discovery Kit)
Assay type: biochemical
Details: for HDAC6 selectivity (fold): HDAC6 over HDAC1; for IC50: human recombinant HDAC6, same protocol as HDAC1, read-out: HDAC6
In short: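 Human recombinant HDAC1 or HDAC6 (0.3 μg) reacted with 10 μM Fluor de Lys-SIRT1 substrate and 5-fold compound dilutions for 60 min at 30 °C. Developer II added for 30 min, fluorescence read at Ex 360/Em 460; IC50 calculated from the readings.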

| SMILES | HDAC6 selectivity (fold) | IC50 [nM] |
| --- | --- | --- |
| O=C(N1CCS(=O)(=O)CC1)N(Cc1ccc(-c2nnc(C(F)F)o2)cc1F)c1ccccc1 [Compound 21370, N-(4-(5-(difluoromethyl)-1,3,4-oxadiazol-2-yl)-2-fluorobenzyl)-N-phenylthiomorpholine-4-carboxamide 1,1-dioxide] | 400 | 25 |
| O=C(N1CCN(C(=O)C(F)(F)F)CC1)N(Cc1ccc(-c2nnc(C(F)(F)F)o2)cc1)c1ccccc1 [Compound 21367, N-phenyl-4-(2,2,2-trifluoroacetyl)-N-(4-(5-(trifluoromethyl)-1,3,4-oxadiazol-2-yl)benzyl)piperazine-1-carboxamide] | 43 | 234 |
| O=C(N1CCS(=O)(=O)CC1)N(Cc1ccc(-c2nnc(C(F)(F)F)o2)cc1)c1ccc(F)cc1F [Compound 21433, N-(2,4-difluorophenyl)-N-(4-(5-(trifluoromethyl)-1,3,4-oxadiazol-2-yl)benzyl)thiomorpholine-4-carboxamide 1,1-dioxide] | 172 | 58 |
| C[C@@H]1CN(C(=O)N(Cc2ccc(-c3nnc(C(F)(F)F)o3)cc2)c2ccccc2)C[C@H](C)O1 [Compound 21380, (2S,6R)-2,6-Dimethyl-N-phenyl-N-(4-(5-(trifluoromethyl)-1,3,4-oxadiazol-2-yl)benzyl) morpholine-4-carboxamide] | 61 | 165 |
| O=C(N1CCOCC1)N(Cc1ccncc1)Cc1ccc(-c2nnc(C(F)(F)F)o2)cc1 [Compound 21464, N-(pyridin-4-ylmethyl)-N-(4-(5-(trifluoromethyl)-1,3,4-oxadiazol-2-yl)benzyl)morpholine-4-carboxamide] | 6 | 1730 |
| CCCNC(=O)N(Cc1ccc(-c2nnc(C(F)(F)F)o2)cc1)c1ccccc1 [Compound 21354, 1-Phenyl-3-propyl-1-(4-(5-(trifluoromethyl)-1,3,4-oxadiazol-2-yl)benzyl)urea] | 26 | 380 |
| O=C(N1CCS(=O)(=O)CC1)N(Cc1ccc(-c2nnc(C(F)(F)F)o2)cc1Cl)c1ccccc1 [Compound 21410, N-(2-chloro-4-(5-(trifluoromethyl)-1,3,4-oxadiazol-2-yl)benzyl)-N-phenylthiomorpholine-4-carboxamide 1,1-dioxide] | 12 | 840 |

The remaining lines, values ahead:

| HDAC6 selectivity (fold) | IC50 [nM] | SMILES |
| --- | --- | --- |
| 116 | 86 | O=C(NCCN1CCCCC1)N(Cc1ccc(-c2nnc(C(F)F)o2)cc1F)c1ccccc1 [Compound 21957, 1-(4-(5-(Difluoromethyl)-1,3,4-oxadiazol-2-yl)-2-fluorobenzyl)-1-phenyl-3-(2-(piperidin-1-yl)ethyl)urea] |
| 53 | 190 | O=C(N1CCS(=O)(=O)CC1)N(Cc1ccc(-c2nnc(C(F)F)o2)cc1F)c1ccc(CN2CCN(Cc3ccccc3)CC2)cc1 [Compound 21900, N-(4-((4-benzylpiperazin-1-yl)methyl)phenyl)-N-(4-(5-(difluoromethyl)-1,3,4-oxadiazol-2-yl)-2-fluorobenzyl)thiomorpholine-4-carboxamide 1,1-dioxide] |
| 286 | 35 | O=C(N1CCS(=O)(=O)CC1)N(Cc1ccc(-c2nnc(C(F)F)o2)cc1F)c1ccc(OC(F)(F)F)cc1 [Compound 21514, N-(4-(5-(difluoromethyl)-1,3,4-oxadiazol-2-yl)-2-fluorobenzyl)-N-(4-(trifluoromethoxy)phenyl)thiomorpholine-4-carboxamide 1,1-dioxide] |
| 588 | 17 | CCN1CCC2(CC1)CN(C(=O)N(Cc1ccc(-c3nnc(C(F)F)o3)cc1F)c1ccccc1)C2 [Compound 21499, N-(4-(5-(difluoromethyl)-1,3,4-oxadiazol-2-yl)-2-fluorobenzyl)-7-ethyl-N-phenyl-2,7-diazaspiro[3.5]nonane-2-carboxamide] |
